From paper PMC10026764, “Overcoming the imatinib-resistant BCR-ABL mutants with new ureidobenzothiazole chemotypes endowed with potent and broad-spectrum anticancer activity” (Journal of Enzyme Inhibition and Medicinal Chemistry, 2023)
Values joined by “and” are separate entries in the source; they are usually repeats but may differ in a detail not shown here. Identical values can stand only once. Like-named read-outs stand apart in the source and are kept apart here.

Assays:
BCR-ABL^WT = BCR-ABL^WT (Homo sapiens, UniProt P00519); test: In vitro kinase screening (RBC), BCR-ABL^WT; type: biochemical; details: 10-dose IC50 mode, 3-fold serial dilution, 10 μM ATP
NCI-60 cell lines = test: NCI-60 single dose SRB assay (panel); type: cell-based; details: single dose 10 μM
Source text: To gain further insights about the anticancer profile of this new ureidobenzothiazole chemotypes, the structures of all final compounds were submitted to the National Cancer Institute (NCI, Developmental Therapeutics Program, Bethesda, MD, USA). Based on NCI selection criteria, compounds 2b (AK-HW-90), 2e, and 2f were chosen for broad screening against a library of 60 human cancer cell lines, representing nine types of blood and solid cancers. Employing the highly sensitive sulforhodamine B (SRB) assay, compounds 2b, 2e, and 2f were tested initially at a single dose of 10 μM, and their detailed activities on the percentages growth of the NCI-60 cell lines were illustrated in Figure 5, and compared with that observed for the lead benzothiazole AKE-5l.

NCI 60-cell line panel [1] = test: cells; type: cell-based
HL-60(TB) = test: NCI-60 five-dose SRB assay; type: cell-based; details: Homo sapiens, leukaemia
MOLT-4 = test: NCI-60 five-dose SRB assay; type: cell-based, human; details: MOLT-4, leukaemia; for GI50 / CC50: Homo sapiens; for CC50: read-out: LC50 (the source's name)
SR = test: NCI-60 five-dose SRB assay; type: cell-based, human; details: leukaemia
HOP-92 = test: NCI-60 five-dose SRB assay; type: cell-based; details: Homo sapiens; HOP-92, non-small cell lung cancer
NCI-H226 = test: NCI-60 five-dose SRB assay; type: cell-based; details: Homo sapiens; NCI-H226, non-small cell lung cancer
NCI-H23 = test: NCI-60 five-dose SRB assay; type: cell-based; details: Homo sapiens; NCI-H23, non-small cell lung cancer
NCI-H460 = test: cells; type: cell-based; details: for CC50 / TGI: NCI-H460, NSCL cancer; for CC50: read-out: LC50 (the source's name)
SW-620 = test: NCI-60 five-dose SRB assay; type: cell-based; details: Homo sapiens; SW-620, colon cancer
SF-539 = test: NCI-60 five-dose SRB assay; type: cell-based; details: Homo sapiens; SF-539, CNS cancer
SNB-75 [2] = test: NCI-60 five-dose SRB assay; type: cell-based, human; details: SNB-75, CNS cancer; for GI50 / CC50: Homo sapiens; for CC50: read-out: LC50 (the source's name)
M14 = test: NCI-60 five-dose SRB assay; type: cell-based, human; details: M14, melanoma; for GI50 / LC50 (concentration killing 50% of cells): Homo sapiens
MDA-MB-435 = test: NCI-60 five-dose SRB assay; type: cell-based; details: Homo sapiens; MDA-MB-435, melanoma
UACC-257 [3] = test: NCI-60 five-dose SRB assay; type: cell-based; details: Homo sapiens; UACC-257, melanoma
UACC-62 = test: NCI-60 five-dose SRB assay; type: cell-based; details: Homo sapiens; UACC-62, melanoma
OVCAR-3 [4] = test: NCI-60 five-dose SRB assay; type: cell-based, human; details: OVCAR-3, ovarian cancer; for GI50 / LC50 (concentration killing 50% of cells): Homo sapiens
NCI/ADR-RES = test: NCI-60 five-dose SRB assay; type: cell-based; details: Homo sapiens, ovarian cancer
SK-OV-3 = test: NCI-60 five-dose SRB assay; type: cell-based; details: Homo sapiens; SK-OV-3, ovarian cancer
RXF 393 = test: NCI-60 five-dose SRB assay; type: cell-based; details: Homo sapiens; RXF 393, renal cancer
UO-31 [5] = test: NCI-60 five-dose SRB assay; type: cell-based, human; details: UO-31, renal cancer; for GI50 / CC50: Homo sapiens; for CC50: read-out: LC50 (the source's name)
DU-145 = test: NCI-60 five-dose SRB assay; type: cell-based, human; details: DU-145, prostate cancer; for GI50 / CC50: Homo sapiens; for CC50: read-out: LC50 (the source's name)
T-47D [6] = test: NCI-60 five-dose SRB assay; type: cell-based; details: Homo sapiens, T47D, breast cancer
NCI 60-cell line panel [7] = tested on: NCI 60-cell line panel; parameters: method as in earlier work; details: COLO205, HCC-2998, HCT-116 and HCT-15 colon cancer cells; cited from earlier work
COLO 205 = tested on: COLO 205; parameters: method as in earlier work; details: imatinib mesylate NSC 743414, NCI data; cited from earlier work
SF-295 = tested on: SF-295; parameters: method as in earlier work; details: imatinib mesylate NSC 743414, NCI data; cited from earlier work
SNB-75 [8] = tested on: SNB-75; parameters: method as in earlier work; details: imatinib mesylate NSC 743414, NCI data; cited from earlier work
LOX IMVI = tested on: LOX IMVI; parameters: method as in earlier work; details: imatinib mesylate NSC 743414, NCI data; cited from earlier work
UACC-257 [9] = tested on: UACC-257; parameters: method as in earlier work; details: imatinib mesylate NSC 743414, NCI data; cited from earlier work
IGROV1 = tested on: IGROV1; parameters: method as in earlier work; details: imatinib mesylate NSC 743414, NCI data; cited from earlier work
OVCAR-3 [10] = tested on: OVCAR-3; parameters: method as in earlier work; details: imatinib mesylate NSC 743414, NCI data; cited from earlier work
SN12C = tested on: SN12C; parameters: method as in earlier work; details: imatinib mesylate NSC 743414, NCI data; cited from earlier work
UO-31 [11] = tested on: UO-31; parameters: method as in earlier work; details: imatinib mesylate NSC 743414, NCI data; cited from earlier work
PC-3 = tested on: PC-3; parameters: method as in earlier work; details: imatinib mesylate NSC 743414, NCI data; cited from earlier work
T-47D [12] = tested on: T-47D; parameters: method as in earlier work; details: imatinib mesylate NSC 743414, NCI data; cited from earlier work
[13] = Homo sapiens, 60 cell, all tested melanoma cell lines, read-out: GI50
[14] = Homo sapiens, COLO205, HCC-2998, HCT-116 and HCT-15 colon cancer cells, read-out: GI50
[15] = Homo sapiens, NCI-H460, NCI-H460, non-small cell lung cancer

Chain of BCR-ABL^WT (P00519 27-1130): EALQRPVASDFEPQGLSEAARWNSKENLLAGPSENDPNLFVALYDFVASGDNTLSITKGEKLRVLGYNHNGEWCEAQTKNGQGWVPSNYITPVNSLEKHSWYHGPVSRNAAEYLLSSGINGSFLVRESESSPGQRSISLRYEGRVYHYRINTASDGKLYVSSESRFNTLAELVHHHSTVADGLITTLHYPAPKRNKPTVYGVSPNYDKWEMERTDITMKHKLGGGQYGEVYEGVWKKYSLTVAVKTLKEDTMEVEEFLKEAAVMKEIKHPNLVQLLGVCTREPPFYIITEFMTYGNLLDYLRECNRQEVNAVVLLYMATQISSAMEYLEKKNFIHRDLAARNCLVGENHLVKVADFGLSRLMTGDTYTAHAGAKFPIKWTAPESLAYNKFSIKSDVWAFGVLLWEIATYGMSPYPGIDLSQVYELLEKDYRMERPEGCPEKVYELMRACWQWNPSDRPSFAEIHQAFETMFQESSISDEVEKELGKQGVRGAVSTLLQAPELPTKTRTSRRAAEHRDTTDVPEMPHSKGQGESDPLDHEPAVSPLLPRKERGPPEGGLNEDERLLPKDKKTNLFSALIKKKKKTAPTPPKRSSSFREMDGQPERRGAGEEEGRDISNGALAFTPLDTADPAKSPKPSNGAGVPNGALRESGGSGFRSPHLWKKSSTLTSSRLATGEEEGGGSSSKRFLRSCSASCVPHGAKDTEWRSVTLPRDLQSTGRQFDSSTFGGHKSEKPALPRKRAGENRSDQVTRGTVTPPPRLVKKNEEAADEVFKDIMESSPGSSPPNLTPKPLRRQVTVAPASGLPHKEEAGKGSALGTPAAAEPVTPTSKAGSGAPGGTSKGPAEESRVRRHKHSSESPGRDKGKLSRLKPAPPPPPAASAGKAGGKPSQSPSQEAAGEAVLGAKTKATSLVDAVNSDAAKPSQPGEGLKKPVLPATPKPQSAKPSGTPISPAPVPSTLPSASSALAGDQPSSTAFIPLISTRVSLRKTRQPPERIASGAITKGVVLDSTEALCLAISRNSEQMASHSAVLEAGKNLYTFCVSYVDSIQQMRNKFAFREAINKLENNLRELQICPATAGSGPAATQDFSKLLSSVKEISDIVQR

CCN1CCN(c2ccc(NC(=O)Nc3nc4ccc(-c5ccccc5OC)cc4s3)cc2)CC1 [Compound 2b]
IC50 (BCR-ABL^WT): 0.7 nM and 0.701 nM | number of cancer cells with lethal/cytotoxic effects (minus % growth values) (NCI-60 cell lines): 55 cancer cells | GI50 (NCI 60-cell line panel [1]; Homo sapiens, 60 cell, all ovarian cancer cell lines, read-out: GI50): < 2000 nM | GI50 (NCI 60-cell line panel [1]; [13]): 1540 to 2510 nM | LC50 (NCI 60-cell line panel [1]; Homo sapiens, 60 cell, several cancer cells): < 10000 nM | GI50 (NCI 60-cell line panel [1]; [14]): 1070 to 2650 nM | GI50 (NCI 60-cell line panel [1]; all examined cell lines): one-digit micromolar | TGI (NCI 60-cell line panel [1]; several cancer cells): < 5000 nM | GI50 (HL-60(TB)): 1730 nM | GI50 (MOLT-4): 1800 nM | CC50 (MOLT-4): 7450 nM | TGI (MOLT-4): 3670 nM | GI50 (SR; Homo sapiens): ~1700 nM | GI50 (SR): 1650 nM | GI50 (HOP-92): 1470 nM | GI50 (NCI-H226): 2090 nM | GI50 (NCI-H23): 1670 nM | GI50 (NCI-H460; [15]): ~1760 nM | CC50 (NCI-H460; Homo sapiens): 6010 nM | TGI (NCI-H460): 3270 nM | GI50 (NCI-H460; NCI-H460, non-small cell lung cancer): 1770 nM | GI50 (SW-620): 1940 nM | GI50 (SF-539): 1600 nM | GI50 (SNB-75 [2]): 1490 nM | CC50 (SNB-75 [2]): 5460 nM | TGI (SNB-75 [2]): 2860 nM | GI50 (M14): 1620 nM | LC50 (concentration killing 50% of cells) (M14): 5660 nM | TGI (M14): 3030 nM | GI50 (MDA-MB-435): 1710 nM | GI50 (UACC-257 [3]): 2110 nM | GI50 (UACC-62): 1870 nM | GI50 (OVCAR-3 [4]): 1640 nM | LC50 (concentration killing 50% of cells) (OVCAR-3 [4]): 5900 nM | TGI (OVCAR-3 [4]): 3110 nM | GI50 (NCI/ADR-RES): 1720 nM | GI50 (SK-OV-3): 1790 nM | GI50 (RXF 393): 1700 nM | GI50 (UO-31 [5]): 1520 nM | CC50 (UO-31 [5]): 5630 nM | TGI (UO-31 [5]): 2920 nM | TGI (DU-145): 3260 nM | GI50 (DU-145): 1740 nM | CC50 (DU-145): 6080 nM | GI50 (T-47D [6]): 1580 nM

COc1ccccc1-c1ccc2nc(NC(=O)Nc3cc(C(F)(F)F)cc(C(F)(F)F)c3)sc2c1 [Compound 2e]
IC50 (BCR-ABL^WT): 4090 nM | number of cancer cells with lethal/cytotoxic effects (minus % growth values) (NCI-60 cell lines): 21 cancer cells | GI50 (NCI 60-cell line panel [1]; [13]): 1540 to 2510 nM | GI50 (NCI 60-cell line panel [1]; [14]): 1070 to 2650 nM | GI50 (NCI 60-cell line panel [1]; all examined cell lines): one-digit micromolar | GI50 (HL-60(TB)): 2010 nM | GI50 (MOLT-4): 1590 nM | CC50 (MOLT-4): 51300 nM | TGI (MOLT-4): 7240 nM | GI50 (SR; Homo sapiens): ~1700 nM | GI50 (SR): 1760 nM | GI50 (HOP-92): 1190 nM | GI50 (NCI-H226): 2160 nM | GI50 (NCI-H23): 2020 nM | GI50 (NCI-H460; [15]): 2260 nM | CC50 (NCI-H460; Homo sapiens): 23500 nM | TGI (NCI-H460): 6120 nM | GI50 (SW-620): 3040 nM | GI50 (SF-539): 1990 nM | GI50 (SNB-75 [2]): 2250 nM | CC50 (SNB-75 [2]): 45300 nM | TGI (SNB-75 [2]): 11800 nM | GI50 (M14): 1540 nM | LC50 (concentration killing 50% of cells) (M14): 6730 nM | TGI (M14): 3220 nM | GI50 (MDA-MB-435): 2270 nM | GI50 (UACC-257 [3]): 2310 nM | GI50 (UACC-62): 1560 nM | GI50 (OVCAR-3 [4]): 1580 nM | LC50 (concentration killing 50% of cells) (OVCAR-3 [4]): 16700 nM | TGI (OVCAR-3 [4]): 4580 nM | GI50 (NCI/ADR-RES): 2370 nM | GI50 (SK-OV-3): 2920 nM | GI50 (RXF 393): 2190 nM | GI50 (UO-31 [5]): 1790 nM | CC50 (UO-31 [5]): 9290 nM | TGI (UO-31 [5]): 4070 nM | TGI (DU-145): 14900 nM | GI50 (DU-145): 4000 nM | CC50 (DU-145): 42400 nM | GI50 (T-47D [6]): 2160 nM

Cc1ccc(NC(=O)c2ccc(CN3CCN(C)CC3)cc2)cc1Nc1nccc(-c2cccnc2)n1 [Imatinib]
GI50 (NCI 60-cell line panel [7]): 12600 to 21200 nM | GI50 (COLO 205): 17600 nM | GI50 (SF-295): 19800 nM | GI50 (SNB-75 [8]): 20300 nM | GI50 (LOX IMVI): 18100 nM | GI50 (UACC-257 [9]): 21100 nM | GI50 (IGROV1): 21200 nM | GI50 (OVCAR-3 [10]): 34200 nM | GI50 (SN12C): 33200 nM | GI50 (UO-31 [11]): 22300 nM | GI50 (PC-3): 21400 nM | GI50 (T-47D [12]): 19900 nM
